Test results taken from patent US5696151A, “Compounds useful for the inhibition of the replication of HIV-1 and HIV-1 mutants” (priority 1995, dated 1997).
≈ marks a conversion by molar mass, not a printed value.

Experiments:
Type in all cases: cell-based
HIV-1/106-Ala = test: Inhibition of HIV-1 induced syncytium formation in CEM cells, RT mutant 106-Ala; settings: Table 2B, day 4, averages of 2 to 3 independent experiments; for EC50: Human immunodeficiency virus 1, CCRF-CEM, 96 h, read-out: Antiviral Activity of Comparative Compounds EC50, 106-Ala
Source text: (§1) CEM cells were obtained from the American Tissue Cell Culture Collection (Rockville, Md.). HIV-1(IIIB) was originally obtained from the culture supernatant of persistently HIV-1-infected H9 cells and was provided by R. C. Gallo and M. Popovic (National Cancer Institute, National Institutes of Health, Bethesda, Md.). […] 67: 5353-5359 (1993); HIV-1/Lys-138 ("Lys-138") was selected for resistance against TSAO-m^3T as described in Balzarini et al, Virology 192: 246-253 (1993) and Balzarini et al, Proc. Nat. Acad. Sci. USA 90: 6952-6956 (1993); HIV-1/181-Cys ("181-Cys") was selected for resistance against pyridinone L-697,661 as described in Balzarini et al, Virology 192: 246-253 (1993); and HIV-1/188-His ("188-His") was selected for resistance against HEPT as described in Balzarini et al, Mol. Pharmocol. 44: 694-701 (1993). 188-His was then further converted to HIV-1/188-Leu "188-Leu") upon further passage in cell culture in the absence of the HEPT.
(§2) CEM cells were suspended at ≈300,000 cells per ml of culture medium and infected with approximately 100 CCID50 (CCID50 being the 50% cell culture infective dose) of HIV-1(IIIB) or one of the HIV-1 RT mutant strains described above. Then 100 μl of the infected cell suspensions was added to 200 μl microtiter plate wells containing 100 μl of appropriate serial (5-fold) dilutions of the test compounds. The inhibitory effect of the test compounds on HIV-1 induced syncytium formation in CEM cells was examined microscopically on day 4 post infection.

HIV-1/188-Leu = test: Inhibition of HIV-1 induced syncytium formation in CEM cells, RT mutant 188-Leu; settings: Human immunodeficiency virus 1, CCRF-CEM, 96 h, Table 2B, day 4, averages of 2 to 3 independent experiments, read-out: Antiviral Activity of Comparative Compounds EC50, 188-Leu
Source text: as §1, §2

in vitro = settings: human, cem cells, CC50 (50% cytostatic concentration), Table 2B; CEM cell proliferation; averages of 2 to 3 independent experiments
Source text: as §1
^b 50% cytostatic concentration (i.e., compound concentration require
to inhibit CEM cell proliferation by 50%)

HIV-1/Lys-138 = test: Inhibition of HIV-1 induced syncytium formation in CEM cells, RT mutant 138-Lys; settings: Human immunodeficiency virus 1, CCRF-CEM, 96 h, Table 2B, day 4, averages of 2 to 3 independent experiments, read-out: Antiviral Activity of Comparative Compounds EC50, 138-Lys
Source text: as §1, §2

HIV-1(IIIB) = test: Inhibition of HIV-1 induced syncytium formation in CEM cells, wild type; settings: Table 2B, WT = HIV-1(IIIB), day 4, averages of 2 to 3 independent experiments; for EC50: Human immunodeficiency virus 1, IIIB, CCRF-CEM, 96 h, read-out: Antiviral Activity of Comparative Compounds EC50, WT
Source text: as §1, §2

HIV-1/100-Ile = test: Inhibition of HIV-1 induced syncytium formation in CEM cells, RT mutant 100-Ile; settings: Human immunodeficiency virus 1, CCRF-CEM, 96 h, Table 2B, day 4, averages of 2 to 3 independent experiments, read-out: Antiviral Activity of Comparative Compounds EC50, 100-Ile
Source text: as §1, §2

HIV-1/103-Asn = test: Inhibition of HIV-1 induced syncytium formation in CEM cells, RT mutant 103-Asn; settings: Human immunodeficiency virus 1, CCRF-CEM, 96 h, Table 2B, day 4, averages of 2 to 3 independent experiments, read-out: Antiviral Activity of Comparative Compounds EC50, 103-Asn
Source text: as §1, §2

HIV-1/181-Cys = test: Inhibition of HIV-1 induced syncytium formation in CEM cells, RT mutant 181-Cys; settings: Human immunodeficiency virus 1, CCRF-CEM, 96 h, Table 2B, day 4, averages of 2 to 3 independent experiments, read-out: Antiviral Activity of Comparative Compounds EC50, 181-Cys
Source text: as §1, §2

SMILES | EC50 (HIV-1/106-Ala) [µg/mL] | EC50 (HIV-1/188-Leu) [µg/mL] | CC50 (in vitro) [µg/mL] | EC50 (HIV-1/Lys-138) [µg/mL] | EC50 (HIV-1(IIIB)) [µg/mL] | EC50 (HIV-1/100-Ile) [µg/mL] | EC50 (HIV-1/103-Asn) [µg/mL] | EC50 (HIV-1/181-Cys) [µg/mL] | Antiviral Activity of Comparative Compounds EC50, 106-Ala (HIV-1/106-Ala) [µg/mL] | Antiviral Activity of Comparative Compounds EC50, WT (HIV-1(IIIB)) [µg/mL]
CC=CCOc1cc(NC(=S)c2ccsc2C)ccc1Cl [Compound 1] | 0.023 (≈ 0.0681 µM) | 0.65 (≈ 1.92 µM) | 5.9 (≈ 17.5 µM) | 0.018 (≈ 0.0533 µM) | 0.0055 (≈ 0.0163 µM) | 0.048 (≈ 0.142 µM) | 0.048 (≈ 0.142 µM) | 0.03 (≈ 0.0888 µM) | – | –
CC=CCOc1cc(NC(=S)c2ccoc2C)ccc1Cl [Compound 2] | 0.04 (≈ 0.124 µM) | 0.65 (≈ 2.02 µM) | 9 (≈ 28 µM) | 0.018 (≈ 0.0559 µM) | 0.006 (≈ 0.0186 µM) | 0.048 (≈ 0.149 µM) | 0.023 (≈ 0.0715 µM) | 0.075 (≈ 0.233 µM) | – | –
Cc1occc1C(=S)Nc1ccc(Cl)c(C=NOC(C)(C)C)c1 [Compound 3] | – | 0.91 (≈ 2.59 µM) | 5.8 (≈ 16.5 µM) | 0.045 (≈ 0.128 µM) | – | 0.057 (≈ 0.162 µM) | 0.23 (≈ 0.656 µM) | 0.08 (≈ 0.228 µM) | 0.03 | 0.0065
CON=Cc1cc(NC(=S)c2ccoc2C)ccc1OC [Compound 4] | 0.22 (≈ 0.723 µM) | 0.93 (≈ 3.06 µM) | > 100 | 0.039 (≈ 0.128 µM) | 0.007 (≈ 0.023 µM) | 0.22 (≈ 0.723 µM) | 0.4 (≈ 1.31 µM) | 0.59 (≈ 1.94 µM) | – | –
CC1=C(C(=S)Nc2ccc(Cl)c(C=NOC(C)(C)C)c2)CCCO1 [Compound 5] | 0.025 (≈ 0.0681 µM) | > 2 | 10 (≈ 27.3 µM) | 0.04 (≈ 0.109 µM) | 0.013 (≈ 0.0354 µM) | 0.055 (≈ 0.15 µM) | 0.08 (≈ 0.218 µM) | 0.025 (≈ 0.0681 µM) | – | –
CC=CCSc1cc(NC(=S)c2ccoc2C)ccc1Cl [Compound 6] | 0.018 (≈ 0.0533 µM) | 1 (≈ 2.96 µM) | 4.7 (≈ 13.9 µM) | 0.03 (≈ 0.0888 µM) | 0.0041 (≈ 0.0121 µM) | 0.037 (≈ 0.11 µM) | 0.03 (≈ 0.0888 µM) | 0.045 (≈ 0.133 µM) | – | –
CC1=C(C(=S)Nc2ccc(Cl)c(C=NOC(C)(C)C)c2)CCO1 [Compound 7] | 0.03 (≈ 0.085 µM) | 1.2 (≈ 3.4 µM) | 11 (≈ 31.2 µM) | 0.04 (≈ 0.113 µM) | 0.0065 (≈ 0.0184 µM) | 0.055 (≈ 0.156 µM) | 0.058 (≈ 0.164 µM) | 0.045 (≈ 0.128 µM) | – | –
CC=CCSc1cc(NC(=S)c2ccsc2C)ccc1Cl [Compound 8] | 0.023 (≈ 0.065 µM) | > 2 | 5.1 (≈ 14.4 µM) | 0.025 (≈ 0.0706 µM) | 0.0055 (≈ 0.0155 µM) | 0.032 (≈ 0.0904 µM) | 0.023 (≈ 0.065 µM) | 0.025 (≈ 0.0706 µM) | – | –
Cc1c(C(=S)Nc2ccc(Cl)c(C=NOC(C)(C)C)c2)ccn1C [Compound 10] | 0.23 (≈ 0.632 µM) | > 2 | 6.5 (≈ 17.9 µM) | 0.09 (≈ 0.247 µM) | 0.02 (≈ 0.055 µM) | 0.65 (≈ 1.79 µM) | 1.27 (≈ 3.49 µM) | 0.033 (≈ 0.0907 µM) | – | –
Cn1ccc(C(=S)Nc2ccc(Cl)c(C=NOC(C)(C)C)c2)c1 [Compound 11] | 0.1 (≈ 0.286 µM) | > 2 | 13 (≈ 37.2 µM) | 0.13 (≈ 0.372 µM) | 0.029 (≈ 0.0829 µM) | 0.13 (≈ 0.372 µM) | 0.17 (≈ 0.486 µM) | 0.045 (≈ 0.129 µM) | – | –
Cc1sccc1C(=S)Nc1ccc(Cl)c(OCCC(C)C)c1 [Compound 12] | 0.08 (≈ 0.226 µM) | > 2 | > 100 | 0.035 (≈ 0.0989 µM) | 0.007 (≈ 0.0198 µM) | 0.035 (≈ 0.0989 µM) | 0.035 (≈ 0.0989 µM) | 0.07 (≈ 0.198 µM) | – | –
CCC1=C(C(=O)Nc2ccc(Cl)c(C(=O)OC3CCCCC3)c2)SCCO1 [Compound 13] | 0.17 (≈ 0.415 µM) | ≥ 2 | 11.4 (≈ 27.8 µM) | 0.25 (≈ 0.61 µM) | 0.08 (≈ 0.195 µM) | 0.26 (≈ 0.634 µM) | 0.38 (≈ 0.927 µM) | 0.07 (≈ 0.171 µM) | – | –
Cc1sccc1C(=S)Nc1ccc(Cl)c(OCC(=O)OC(C)(C)C)c1 [Compound 14] | 0.1 (≈ 0.251 µM) | > 2 | 2.1 (≈ 5.28 µM) | 0.24 (≈ 0.603 µM) | 0.067 (≈ 0.168 µM) | 0.16 (≈ 0.402 µM) | 0.12 (≈ 0.302 µM) | 0.087 (≈ 0.219 µM) | – | –
CCC1=C(C(=O)Nc2ccc(Cl)c(C=NOC(C)(C)C)c2)SCCO1 [Compound 15] | 0.06 (≈ 0.157 µM) | > 2 | 11.4 (≈ 29.8 µM) | 0.07 (≈ 0.183 µM) | 0.03 (≈ 0.0783 µM) | 0.06 (≈ 0.157 µM) | 0.065 (≈ 0.17 µM) | 0.09 (≈ 0.235 µM) | – | –
